Assay results: patent US20260108646A1, “METHOD AND DEVICE FOR DI[…]/OR S[…]” (SCHWING TECHNOLOGIES GMBH, priority 2022, published 2026)

Assays:
[1] = test system: Geobacillus stearothermophilus spores; experiment: Validation tests for disinfection of laboratory utensils sprinkled with spore suspension SAL 10^6; assay type: cell-based; settings: for Biological Result #not sterile/#tested: PES in solution 4 %
[2] = test system: Geobacillus stearothermophilus spores; experiment: Validation tests for disinfection of bio-indicator spore strips SAL 10^5; assay type: cell-based; settings: 50-55° C.
[3] = test system: human patellar tendon allografts; settings: in vitro study, human patellar tendon allografts [98]; cited from earlier work

CC(=O)OO [PES, peracetic acid]
Biological Result #not sterile/#tested ([1]; test 5, PES in process chamber 1.9 g/m^3, process duration 120 min): 0/4 | Biological Result #not sterile/#tested ([1]; test 7, PES in process chamber 1.9 g/m^3, process duration 60 min): 0/4 | Biological Result #not sterile/#tested ([1]; test 8, PES in process chamber 1.9 g/m^3, process duration 45 min): 0/4 | Biological Result #not sterile/#tested ([1]; test 12, PES in process chamber 1.9 g/m^3, process duration 15 min): 0/4 | Biological Result #not sterile/#tested ([1]; test 13, PES in process chamber 1.9 g/m^3, process duration 10 min): 0/4 | Biological Result #not sterile/#tested ([1]; test 14, PES in process chamber 1.9 g/m^3, process duration 5 min): 0/4 | Biological Result #not sterile/#tested ([1]; test 15, PES in process chamber 1.7 g/m^3, process duration 20 min): 0/4 | Biological Result #not sterile/#tested ([1]; test 16, PES in process chamber 1.7 g/m^3, process duration 15 min): 0/4 | Biological Result #not sterile/#tested ([1]; test 19, PES in process chamber 1.3 g/m^3, process duration 20 min): 0/4 | Biological Result #not sterile/#tested ([1]; test 20, PES in process chamber 1.3 g/m^3, process duration 15 min): 0/4 | Biological Result #not sterile/#tested ([1]; test 21, PES in process chamber 0.94 g/m^3, process duration 60 min): 0/4 | Biological Result #not sterile/#tested ([1]; test 22, PES in process chamber 0.94 g/m^3, process duration 40 min): 0/4 | Biological Result #not sterile/#tested ([1]; test 23, PES in process chamber 0.94 g/m^3, process duration 30 min, not sterile: pipette): (pipette) 1/8 | Biological Result #not sterile/#tested ([1]; test 24, PES in process chamber 0.94 g/m^3, process duration 20 min): 0/8 | Biological Result #not sterile/#tested ([1]; test 25, PES in process chamber 0.94 g/m^3, process duration 15 min, not sterile: pipette): (pipette) 1/4 | Biological Result #not sterile/#tested ([1]; test 26, PES in process chamber 0.94 g/m^3, process duration 10 min): 0/4 | Biological Result #not sterile/#tested ([1]; test 27, PES in process chamber 0.94 g/m^3, process duration 5 min, not sterile: pipette): (pipette) 1/4 | Biological Result #not sterile/#tested ([1]; test 28, PES in process chamber 0.47 g/m^3, process duration 60 min): 0/4 | Biological Result #not sterile/#tested ([1]; test 29, PES in process chamber 0.47 g/m^3, process duration 30 min): 0/4 | Biological Result #not sterile/#tested ([1]; test 30, PES in process chamber 0.47 g/m^3, process duration 15 min, not sterile: Eppi): (Eppi) 1/4 | Biological Result #not sterile/#tested ([1]; test 31, PES in process chamber 0.47 g/m^3, process duration 10 min, not sterile: pipette): (pipette) 1/4 | Biological Result #not sterile/#tested ([1]; test 32, PES in process chamber 0.47 g/m^3, process duration 5 min, not sterile: mask, pipette): (mask, pipette) 2/4 | spore growth after seven days in nutrient solution ([1]; various tests, relatively low PES concentration in the process chamber and short process duration): spore growth was observed after seven days | growth or proliferation of the spores after treatment ([2]; all spore strips tested at different PES concentrations and different processing times): no growth or proliferation of the spores could be detected | Biological Result #not sterile/#tested ([2]; test 1, PES in solution 6 %, PES in process chamber 3 g/m^3, process duration 240 min): 0/2 | Biological Result #not sterile/#tested ([2]; test 2, PES in solution 6 %, PES in process chamber 3 g/m^3, process duration 120 min): 0/1 | Biological Result #not sterile/#tested ([2]; test 3, PES in solution 6 %, PES in process chamber 1.7 g/m^3, process duration 150 min): 0/2 | Biological Result #not sterile/#tested ([2]; test 4, PES in solution 4 %, PES in process chamber 2 g/m^3, process duration 120 min): 0/1 | Biological Result #not sterile/#tested ([2]; test 5, PES in solution 4 %, PES in process chamber 1.9 g/m^3, process duration 120 min): 0/2 | Biological Result #not sterile/#tested ([2]; test 6, PES in solution 4 %, PES in process chamber 1.9 g/m^3, process duration 90 min): 0/2 | Biological Result #not sterile/#tested ([2]; test 7, PES in solution 4 %, PES in process chamber 1.9 g/m^3, process duration 60 min): 0/4 | Biological Result #not sterile/#tested ([2]; test 8, PES in solution 4 %, PES in process chamber 1.9 g/m^3, process duration 45 min): 0/1 | Biological Result #not sterile/#tested ([2]; test 9, PES in solution 4 %, PES in process chamber 1.9 g/m^3, process duration 40 min): 0/2 | Biological Result #not sterile/#tested ([2]; test 10, PES in solution 4 %, PES in process chamber 1.9 g/m^3, process duration 30 min): 0/2 | Biological Result #not sterile/#tested ([2]; test 11, PES in solution 4 %, PES in process chamber 1.9 g/m^3, process duration 20 min): 0/2 | Biological Result #not sterile/#tested ([2]; test 12, PES in solution 4 %, PES in process chamber 1.9 g/m^3, process duration 15 min): 0/1 | Biological Result #not sterile/#tested ([2]; test 13, PES in solution 4 %, PES in process chamber 1.9 g/m^3, process duration 10 min): 0/1 | Biological Result #not sterile/#tested ([2]; test 14, PES in solution 4 %, PES in process chamber 1.9 g/m^3, process duration 5 min): 0/1 | Biological Result #not sterile/#tested ([2]; test 15, PES in solution 4 %, PES in process chamber 1.7 g/m^3, process duration 20 min): 0/1 | Biological Result #not sterile/#tested ([2]; test 16, PES in solution 4 %, PES in process chamber 1.7 g/m^3, process duration 15 min): 0/1 | Biological Result #not sterile/#tested ([2]; test 17, PES in solution 4 %, PES in process chamber 1.5 g/m^3, process duration 240 min): 0/2 | Biological Result #not sterile/#tested ([2]; test 18, PES in solution 4 %, PES in process chamber 1.5 g/m^3, process duration 150 min): 0/2 | Biological Result #not sterile/#tested ([2]; test 19, PES in solution 4 %, PES in process chamber 1.3 g/m^3, process duration 20 min): 0/1 | Biological Result #not sterile/#tested ([2]; test 20, PES in solution 4 %, PES in process chamber 1.3 g/m^3, process duration 15 min): 0/1 | Biological Result #not sterile/#tested ([2]; test 21, PES in solution 4 %, PES in process chamber 0.94 g/m^3, process duration 60 min): 0/5 | Biological Result #not sterile/#tested ([2]; test 22, PES in solution 4 %, PES in process chamber 0.94 g/m^3, process duration 40 min): 0/1 | Biological Result #not sterile/#tested ([2]; test 23, PES in solution 4 %, PES in process chamber 0.94 g/m^3, process duration 30 min): 0/2 | Biological Result #not sterile/#tested ([2]; test 24, PES in solution 4 %, PES in process chamber 0.94 g/m^3, process duration 20 min): 0/2 | Biological Result #not sterile/#tested ([2]; test 25, PES in solution 4 %, PES in process chamber 0.94 g/m^3, process duration 15 min): 0/1 | Biological Result #not sterile/#tested ([2]; test 26, PES in solution 4 %, PES in process chamber 0.94 g/m^3, process duration 10 min): 0/1 | Biological Result #not sterile/#tested ([2]; test 27, PES in solution 4 %, PES in process chamber 0.94 g/m^3, process duration 5 min): 0/1 | Biological Result #not sterile/#tested ([2]; test 28, PES in solution 4 %, PES in process chamber 0.47 g/m^3, process duration 60 min): 0/1 | Biological Result #not sterile/#tested ([2]; test 29, PES in solution 4 %, PES in process chamber 0.47 g/m^3, process duration 30 min): 0/1 | Biological Result #not sterile/#tested ([2]; test 30, PES in solution 4 %, PES in process chamber 0.47 g/m^3, process duration 15 min): 0/1 | Biological Result #not sterile/#tested ([2]; test 31, PES in solution 4 %, PES in process chamber 0.47 g/m^3, process duration 10 min): 0/1 | Biological Result #not sterile/#tested ([2]; test 32, PES in solution 4 %, PES in process chamber 0.47 g/m^3, process duration 5 min): 0/1 | cytotoxic and pro-inflammatory effects [3]: neither cytotoxic nor pro-inflammatory effects
